# Experimental data as given in patent publication US20030022250A1, “Functional IgE test methods and compositions” (priority 2001, published 2003).
# Test system: RBL SX-38 cells
# Assay: [3H]5-HT release (degranulation) from labeled and sensitized RBL SX-38 cells
# Format: cell-based, rat
# Conditions: pre-incubation 5 minutes at 37 C; 0.1 mM NECA, 30% D2O or 5 μg/ml cytochalasin B
# Description: As specifically exemplified herein, we have labeled RBL SX-38 cells with ^3H-serotonin (5HT). A fraction of the tritiated 5-HT incorporated into cellular granules is released from the cells (in the process of degranulation) following their activation. The percentage of labeled 5-HT release, where the label is a radioactive moiety, is calculated as follows: disintegrations per minute (dpm) in the supernatant divided by the sum of the dpm in the supernatant plus the dpm in the residual cells. This formula is as follows:
# % release =100×(dpm in the supematant)/(dpm in the supernatant+dpm in the residual cells).
# For each experiment, a positive control, activation of the cells with anti-IgE is determined. The % release with anti-IgE (usually about 30-60% of the total 5-HT) is set at 100%. Degranulation with a given allergen is then expressed as a percent of that seen with anti-IgE. […]
# Triggering is initiated by adding 5 μl of allergenic extracts (diluted to the appropriate concentration) or goat anti-human-IgE (3 μg/ml). […] Non-specific background release is assessed using negative controls, which have 5 μl PIPES buffer added instead of extract or anti-IgE. After 45 minutes, the plates are then removed and the tritium content of a 50 μl aliquot from the supernatant of each sample, in 5 ml of scintillation fluid, is determined. […]
structure (smiles),measurement,value
"CCNC(=O)[C@H]1O[C@@H](n2cnc3c(N)ncnc32)[C@H](O)[C@@H]1O [NECA, N-ethylcarboxamido adenosine]",effect on threshold for triggering by allergen,lowers the threshold for triggering
